Measurements taken from patent US20060166989A1, “2-naphthamide derivatives” (Bayer Healthcare AG, priority 2002, published 2006).

Experiments:
IP receptor = molecular target: T1, IP receptor (Homo sapiens, UniProt P43119); test: Iloprost-induced cAMP production assay in HEL cells (Assay 2); type: cell-based; details: read-out: Activity grade assay 2
T1 construct: HEL cells were collected with centrifugation and washed with cAMP assay buffer; host or cells: HEL 92.1.7 human erythroleukemia cells
T1 sequence (P43119 whole entry): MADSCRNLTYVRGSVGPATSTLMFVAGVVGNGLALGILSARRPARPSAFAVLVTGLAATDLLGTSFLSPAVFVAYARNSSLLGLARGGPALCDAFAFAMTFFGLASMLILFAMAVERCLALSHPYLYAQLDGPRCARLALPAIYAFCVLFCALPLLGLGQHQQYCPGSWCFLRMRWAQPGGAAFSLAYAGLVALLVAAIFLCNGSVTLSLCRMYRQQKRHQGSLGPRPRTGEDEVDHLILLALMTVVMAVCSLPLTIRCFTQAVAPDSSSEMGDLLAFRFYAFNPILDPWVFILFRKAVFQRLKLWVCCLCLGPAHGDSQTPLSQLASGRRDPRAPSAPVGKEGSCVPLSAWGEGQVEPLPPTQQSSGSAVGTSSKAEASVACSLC
Method: [Iloprost-Induced cAMP Production Assay in HEL Cells] (Assay 2)
HEL cells were collected with centrifugation and washed with cAMP assay buffer (CAB: Hank's balanced salt solution, 17 mM Hepes, 0.1% bovine serum albumin, 1 mM IBMX, 0.4% DMSO, and 1 mM L-ascorbic acid sodium salt (pH 7.4)). Cells were suspended at the density of 2.5×10^5 cells/ml in CAB, and twenty thousand cells in 80 μl aliquot of cell suspension were put in a well of 96 well plate (Falcon). Then, 10 μl of compound solution diluted with 1% DMSO in CAB or buffer alone was added. The plate was incubated at 37° C. for 30 min. Then, another 10 μl containing 100 nM iloprost in CAB or buffer alone was added and further incubated at 37° C. for 30 min. cAMP content in the well was measured by a cAMP ELISA kit (Applied Biosystems, USA).
Results of Iloprost-induced cAMP production assay (Assay2) are shown in Examples and tables of the Examples below. For practical reasons, the compounds are grouped in three classes of activity as follows: A(=or<)0.1μM<B(=or<)1μM<C

## O=C(N[C@@H](Cc1ccccc1)C(=O)O)c1ccc2cc(OCc3ccccc3)ccc2c1 (single isomer, unassigned) [Example 1-1, N-(6-Benzyloxy-2-naphthoyl)phenylalanine]
IP receptor
  IC50: < 100 nM
other
  melting point: 230 °C

## O=C(NC(CO)C(=O)O)c1ccc2cc(OCc3ccccc3)ccc2c1 (centres unmarked) [Example 1-2]
IP receptor
  IC50: > 1000 nM
other
  melting point: 196 to 198 °C

## O=C(NC(Cc1ccc(C(F)(F)F)cc1)C(=O)O)c1ccc2cc(OCc3ccccc3)ccc2c1 (centres unmarked) [Example 1-3]
IP receptor
  IC50: < 100 nM
other
  melting point: 212 to 214 °C (dec.)

## O=C(NC(Cc1ccccc1)C(=O)O)c1ccc2cc(OCCOc3ccccc3)ccc2c1 (centres unmarked) [Example 1-4]
IP receptor
  IC50: 100 to 1000 nM
other
  melting point: 225 to 227 °C

## O=C(NC(Cc1ccccc1)C(=O)O)c1ccc2cc(OCc3ccc(F)cc3)ccc2c1 (centres unmarked) [Example 1-5]
IP receptor
  IC50: < 100 nM
other
  melting point: 197 °C

## O=C(NC(Cc1ccccc1)C(=O)O)c1ccc2cc(OCc3cccc(F)c3)ccc2c1 (centres unmarked) [Example 1-6]
IP receptor
  IC50: < 100 nM
other
  melting point: 197 to 199 °C

## O=C(NC(Cc1ccccc1)C(=O)O)c1ccc2cc(OCc3ccccc3F)ccc2c1 (centres unmarked) [Example 1-7]
IP receptor
  IC50: < 100 nM
other
  melting point: 180 to 182 °C

## O=C(NC(Cc1ccccc1)C(=O)O)c1ccc2cc(OCc3cccnc3)ccc2c1 (centres unmarked) [Example 1-8]
IP receptor
  IC50: < 100 nM
other
  melting point: 217 °C

## O=C(NC(Cc1ccccc1)C(=O)O)c1ccc2cc(OCc3ccccn3)ccc2c1 (centres unmarked) [Example 1-9]
IP receptor
  IC50: 100 to 1000 nM
other
  melting point: 214 °C

## O=C(NC(Cc1ccccc1)C(=O)O)c1ccc2cc(OCc3ccc(F)c(F)c3)ccc2c1 (centres unmarked) [Example 1-10]
IP receptor
  IC50: < 100 nM
other
  melting point: 185 °C

## O=C(NC(Cc1ccccc1)C(=O)O)c1ccc2cc(OCCn3cccc3)ccc2c1 (centres unmarked) [Example 1-11]
IP receptor
  IC50: < 100 nM
other
  melting point: 168 to 169 °C

## O=C(NC(Cc1ccccc1)C(=O)O)c1ccc2cc(OCc3ccncc3)ccc2c1 (centres unmarked) [Example 1-12]
IP receptor
  IC50: < 100 nM
other
  melting point: 220 to 221 °C

## O=C(NC(Cc1ccccc1C(F)(F)F)C(=O)O)c1ccc2cc(OCc3ccccc3)ccc2c1 (centres unmarked) [Example 1-13]
IP receptor
  IC50: 100 to 1000 nM

## O=C(NC(Cc1cccc(C(F)(F)F)c1)C(=O)O)c1ccc2cc(OCc3ccccc3)ccc2c1 (centres unmarked) [Example 1-14]
IP receptor
  IC50: < 100 nM

## O=C(NC(Cc1c[nH]c2ccccc12)C(=O)O)c1ccc2cc(OCc3ccccc3)ccc2c1 (centres unmarked) [Example 1-15]
IP receptor
  IC50: < 100 nM

## COc1ccc(CC(NC(=O)c2ccc3cc(OCc4ccccc4)ccc3c2)C(=O)O)cc1 (centres unmarked) [Example 1-16]
IP receptor
  IC50: < 100 nM

## COc1cc(CC(NC(=O)c2ccc3cc(OCc4ccccc4)ccc3c2)C(=O)O)ccc1O (centres unmarked) [Example 1-17]
IP receptor
  IC50: < 100 nM

## O=C(NC(C(=O)O)C(O)c1ccccc1)c1ccc2cc(OCc3ccccc3)ccc2c1 (centres unmarked) [Example 1-18]
IP receptor
  IC50: < 100 nM

## O=C(NC(Cc1ccccc1)C(=O)O)c1ccc2cc(OCCc3ccccc3)ccc2c1 (centres unmarked) [Example 1-19]
IP receptor
  IC50: < 100 nM
other
  melting point: 144 °C

## O=C(NC(Cc1ccc(Cl)cc1)C(=O)O)c1ccc2cc(OCc3ccccc3)ccc2c1 (centres unmarked) [Example 1-20]
IP receptor
  IC50: < 100 nM
other
  melting point: 202 to 204 °C

## O=C(NC(Cc1cccc(F)c1)C(=O)O)c1ccc2cc(OCc3ccccc3)ccc2c1 (centres unmarked) [Example 1-21]
IP receptor
  IC50: < 100 nM
other
  melting point: 188 to 191 °C

## O=C(NC(Cc1ccc(F)cc1)C(=O)O)c1ccc2cc(OCc3ccccc3)ccc2c1 (centres unmarked) [Example 1-22]
IP receptor
  IC50: < 100 nM
other
  melting point: 214 to 216 °C

## O=C(NC(Cc1ccccc1)C(=O)O)c1ccc2cc(OCc3ccccc3Cl)ccc2c1 (centres unmarked) [Example 1-23]
IP receptor
  IC50: < 100 nM
other
  melting point: 215 °C

## O=C(NC(Cc1ccccc1)C(=O)O)c1ccc2cc(OCc3cccc(Cl)c3)ccc2c1 (centres unmarked) [Example 1-24]
IP receptor
  IC50: < 100 nM
other
  melting point: 187 °C

## O=C(NC(Cc1ccccc1)C(=O)O)c1ccc2cc(OCc3ccc(Cl)cc3)ccc2c1 (centres unmarked) [Example 1-25]
IP receptor
  IC50: 100 to 1000 nM
other
  melting point: 226 °C

## O=C(NC(Cc1ccccc1)C(=O)O)c1ccc2cc(OCc3ccccc3C(F)(F)F)ccc2c1 (centres unmarked) [Example 1-26]
IP receptor
  IC50: 100 to 1000 nM
other
  melting point: 167 °C

## O=C(NC(Cc1ccccc1)C(=O)O)c1ccc2cc(OCc3cccc(C(F)(F)F)c3)ccc2c1 (centres unmarked) [Example 1-27]
IP receptor
  IC50: > 1000 nM
other
  melting point: 158 °C

## O=C(NC(Cc1ccccc1)C(=O)O)c1ccc2cc(OCc3ccc(C(F)(F)F)cc3)ccc2c1 (centres unmarked) [Example 1-28]
IP receptor
  IC50: > 1000 nM
other
  melting point: 224 °C

## COc1ccccc1COc1ccc2cc(C(=O)NC(Cc3ccccc3)C(=O)O)ccc2c1 (centres unmarked) [Example 1-29]
IP receptor
  IC50: < 100 nM
other
  melting point: 169 °C

## COc1cccc(COc2ccc3cc(C(=O)NC(Cc4ccccc4)C(=O)O)ccc3c2)c1 (centres unmarked) [Example 1-30]
IP receptor
  IC50: < 100 nM
other
  melting point: 163 °C

## COc1ccc(COc2ccc3cc(C(=O)NC(Cc4ccccc4)C(=O)O)ccc3c2)cc1 (centres unmarked) [Example 1-31]
IP receptor
  IC50: > 1000 nM
other
  melting point: 188 °C

## O=C(NC(Cc1ccccc1)C(=O)O)c1ccc2cc(OCc3ccc(Cl)c(Cl)c3)ccc2c1 (centres unmarked) [Example 1-32]
IP receptor
  IC50: 100 to 1000 nM
other
  melting point: 202 °C

## O=C(NC(Cc1ccccc1)C(=O)O)c1ccc2cc(OCc3cccc(Cl)c3Cl)ccc2c1 (centres unmarked) [Example 1-33]
IP receptor
  IC50: < 100 nM
other
  melting point: 211 °C

## O=C(NC(Cc1ccccc1)C(=O)O)c1ccc2cc(OCc3cc(Cl)cc(Cl)c3)ccc2c1 (centres unmarked) [Example 1-34]
IP receptor
  IC50: < 100 nM
other
  melting point: 180 °C

## COc1cc(COc2ccc3cc(C(=O)NC(Cc4ccccc4)C(=O)O)ccc3c2)cc(OC)c1 (centres unmarked) [Example 1-35]
IP receptor
  IC50: < 100 nM
other
  melting point: 140 °C

## O=C(NC(Cc1ccccc1)C(=O)O)c1ccc2cc(OCc3cccc(OC(F)(F)F)c3)ccc2c1 (centres unmarked) [Example 1-36]
IP receptor
  IC50: 100 to 1000 nM
other
  melting point: 157 °C

## O=C(NC(Cc1ccccc1)C(=O)O)c1ccc2cc(OCc3ccccc3OC(F)(F)F)ccc2c1 (centres unmarked) [Example 1-37]
IP receptor
  IC50: > 1000 nM
other
  melting point: 158 °C

## COc1cccc(COc2ccc3cc(C(=O)NC(Cc4ccccc4)C(=O)O)ccc3c2)c1OC (centres unmarked) [Example 1-38]
IP receptor
  IC50: > 1000 nM
other
  melting point: 161 °C

## Cc1c(COc2ccc3cc(C(=O)NC(Cc4ccccc4)C(=O)O)ccc3c2)cccc1[N+](=O)[O-] (centres unmarked) [Example 1-39]
IP receptor
  IC50: 100 to 1000 nM
other
  melting point: 202 °C

## Cc1ccc(C)c(COc2ccc3cc(C(=O)NC(Cc4ccccc4)C(=O)O)ccc3c2)c1 (centres unmarked) [Example 1-40]
IP receptor
  IC50: 100 to 1000 nM
other
  melting point: 210 °C

## O=C(NC(Cc1ccccc1)C(=O)O)c1ccc2cc(OCc3c(Cl)cccc3Cl)ccc2c1 (centres unmarked) [Example 1-41]
IP receptor
  IC50: 100 to 1000 nM
other
  melting point: 245 °C

## O=C(NC(Cc1ccccc1)C(=O)O)c1ccc2cc(OCc3ccc(Cl)cc3Cl)ccc2c1 (centres unmarked) [Example 1-42]
IP receptor
  IC50: > 1000 nM
other
  melting point: 202 °C

## O=C(NC(Cc1ccccn1)C(=O)O)c1ccc2cc(OCc3ccccc3)ccc2c1 (centres unmarked) [Example 1-43]
IP receptor
  IC50: 100 to 1000 nM
other
  melting point: 172 to 173 °C (dec.)

## O=C(NC(Cc1cccs1)C(=O)O)c1ccc2cc(OCc3ccccc3)ccc2c1 (centres unmarked) [Example 1-44]
IP receptor
  IC50: < 100 nM
other
  melting point: 200 to 202 °C

## O=C(N[C@@H](Cc1ccccc1)C(=O)O)c1ccc2cc(OCc3ccccc3)ccc2c1 [Example 2-2, N-[6-(benzyloxy)-2-naphthoyl]-L-phenylalanine]
IP receptor
  IC50: > 1000 nM
